# Results taken from PubChem BioAssay AID1963871 (Molecular Pharmacology Branch, DTP, NCI, 2024).
# System: KRAS-mutant PDC multicell tumor spheroid viability
# Experiment: Anticancer human tumor 521955-158-R2-J5-PDC patient-derived pancreatic carcinoma cell line growth inhibition [KRAS2]
# Settings: for IC50: curve of first compound; for viability, T/C: stronger effect = lower value
# Procedure, shortened: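 KRAS-mutant tumor cells were grown as spheroids with HUVEC endothelial cells and human MSCs as stroma. Targeted agents were tested alone and with KRAS pathway inhibitors. Doses started at or near clinical Cmax, or 10 microM, descending half-log.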
# 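Also: viability read after seven days of drug exposure.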
structure (smiles),measurement,setting,value
CC(=O)Nc1cccc(-n2c(=O)n(C3CC3)c(=O)c3c(Nc4ccc(I)cc4F)n(C)c(=O)c(C)c32)c1 + CC1OCC2(CCN(c3cnc(Sc4ccnc(N)c4Cl)c(N)n3)CC2)C1N,IC50,second compound 0.1 µM,0.146 nM
same,IC50,second compound 0.316 µM,< 0.1 nM
same,IC50,second compound 1 µM,< 0.1 nM
same,IC50,second compound 3.16 µM,< 0.1 nM
same,IC50,second compound 10 µM,< 0.1 nM
same,"viability, T/C","second compound 0.1 µM, first compound 0.0001 µM",59%
same,"viability, T/C","second compound 0.1 µM, first compound 0.000316 µM",29.4%
same,"viability, T/C","second compound 0.1 µM, first compound 0.001 µM",29.3%
same,"viability, T/C","second compound 0.1 µM, first compound 0.00316 µM",25.3%
same,"viability, T/C","second compound 0.1 µM, first compound 0.01 µM",21.4%
same,"viability, T/C","second compound 0.1 µM, first compound 0.0316 µM",13.1%
same,"viability, T/C","second compound 0.316 µM, first compound 0.0001 µM",44.9%
same,"viability, T/C","second compound 0.316 µM, first compound 0.000316 µM",32.9%
same,"viability, T/C","second compound 0.316 µM, first compound 0.001 µM",25.4%
same,"viability, T/C","second compound 0.316 µM, first compound 0.00316 µM",22.7%
same,"viability, T/C","second compound 0.316 µM, first compound 0.01 µM",18.1%
same,"viability, T/C","second compound 0.316 µM, first compound 0.0316 µM",12.4%
same,"viability, T/C","second compound 1 µM, first compound 0.0001 µM",40.3%
same,"viability, T/C","second compound 1 µM, first compound 0.000316 µM",35.8%
same,"viability, T/C","second compound 1 µM, first compound 0.001 µM",26.9%
same,"viability, T/C","second compound 1 µM, first compound 0.00316 µM",24.2%
same,"viability, T/C","second compound 1 µM, first compound 0.01 µM",16.8%
same,"viability, T/C","second compound 1 µM, first compound 0.0316 µM",9.6%
same,"viability, T/C","second compound 3.16 µM, first compound 0.0001 µM",40.9%
same,"viability, T/C","second compound 3.16 µM, first compound 0.000316 µM",32.5%
same,"viability, T/C","second compound 3.16 µM, first compound 0.001 µM",25.2%
same,"viability, T/C","second compound 3.16 µM, first compound 0.00316 µM",21.1%
same,"viability, T/C","second compound 3.16 µM, first compound 0.01 µM",15.3%
same,"viability, T/C","second compound 3.16 µM, first compound 0.0316 µM",12.7%
same,"viability, T/C","second compound 10 µM, first compound 0.0001 µM",39.9%
same,"viability, T/C","second compound 10 µM, first compound 0.000316 µM",34%
same,"viability, T/C","second compound 10 µM, first compound 0.001 µM",23.3%
same,"viability, T/C","second compound 10 µM, first compound 0.00316 µM",18.5%
same,"viability, T/C","second compound 10 µM, first compound 0.01 µM",15.1%
same,"viability, T/C","second compound 10 µM, first compound 0.0316 µM",11.6%
